Results taken from patent publication US20070065484A1, “In situ occlusion using natural biodegradable polysaccharides” (priority 2005, published 2007).
Where two headings read alike, the source gives them in different places.

System: PC-12 cells
Conditions: incubation 15 min
Description: Cell suspensions were prepared as follows: PC-12 cells (ATCC; passage 5; 75% confluency) were harvested from a T-75 flask using Trypsin-EDTA for 2 minutes. The cells were placed in a 15 mL polyethylene conical (VWR) and centrifuged in F-12k media without serum for 4 minutes at 500 rpm. The cells were counted using a hemocytometer, centrifuged for 4 minutes at 500 rpm, and resuspended at 600,000 cells/mL in sterile PBS.
In order to determine the effect of individual components of the matrix forming compositions on cell viability, solutions A-G were independently mixed with PC-12 cells. 50 uL of cell suspension was added to 350 uL of solutions A-G (Table 4). After a 15 minute incubation, cell viability was assessed using a Live/Dead™ Viability/Cytotoxicity Kit (cat. # L3224; Molecular Probes, Eugene, Oreg.).
The effect of a formed matrix on cell viability was also tested. To form the PD-A matrix, solution #1 (200 mg PD-A, 10 uL TEMED, 20 uL 1N HCl, 470 uL PBS) was added in the amount of 200 uL to a 1.6 ml eppendorf (VWR). Solution #2 (400 mg PD-A, 10 mg Potassium persulfate, 75K PC-12 cells, 500 uL PBS ) was added in the amount of 200 uL to solution #1 in the eppendorf and mixed for 10 seconds. After a 15 minute incubation, cell viability was assessed using the Live/Dead™ Viability/Cytotoxicity Kit.

Compound: N.N.O=S(=O)(O)OOS(=O)(=O)O [Ammonium persulfate]
- Cell viability (%) (10 mg/ml in PBS): 90%
- Cell viability (%) (120 mg/ml in PBS): 90%

Compound: O=S(=O)([O-])OOS(=O)(=O)[O-].[K+].[K+] [Potassium persulfate]
- Cell viability (%) (10 mg/ml in PBS): 90%

Compound: O=S(=O)([O-])OOS(=O)(=O)[O-].[Na+].[Na+] [Sodium persulfate]
- Cell viability (%) (5 mg/ml in PBS): 90%

Compound: CN(C)CCN(C)C [TEMED/PBS, N,N,N′,N′-Tetramethylethylenediamine]
- Cell viability (%) (0.2% (V/V) in PBS): 10-30%
